Results: patent publication US20240158446A1, “CYCLIC COMPOUND HAVING SELECTIVE INHIBITORY ACTION ON KRAS OVER HRAS AND NRAS” (CHUGAI SEIYAKU KABUSHIKI KAISHA, priority 2021, published 2024)
Read-outs that look alike come from different tables or passages of the source. Where a SMILES comes first, the peptide text is derived from it. Bridges are numbered along the chain shown (N, C = ends). [ ]: non-standard residue; d: D form. The star is where a group is joined. hPhe(3,5-F2-4-CF3) = N[C@@H](CCc1cc(F)c(C(F)(F)F)c(F)c1)C(=O)O; hPhe(3-Cl-4-CF3) = N[C@@H](CCc1ccc(C(F)(F)F)c(Cl)c1)C(=O)O; NPrPhe(4-CF3) = CCCN[C@@H](Cc1ccc(C(F)(F)F)cc1)C(=O)O; NMeAbu(4,4,4-F3) = CN[C@@H](CC(F)(F)F)C(=O)O; NMeGly(cPent) = CN[C@H](C(=O)O)C1CCCC1; Pro(4,4-F2) = O=C(O)[C@@H]1CC(F)(F)CN1; NMeD = CN[C@@H](CC(=O)O)C(=O)O; NMeL = CN[C@@H](CC(C)C)C(=O)O; Morpholide = C1CN(*)CCO1; Ac5c = NC1(C(=O)O)CCCC1; Aze = O=C(O)[C@@H]1CCN1; Ac4c = NC1(C(=O)O)CCC1; Sar = CNCC(=O)O

Tests used:
[1] = target: GDP-bound HRAS wild-type protein (Homo sapiens, UniProt P01112); experiment: Binding to HRAS by surface plasmon resonance (SPR), Single Cycle Kinetics; conditions: for HRAS/KRAS (ratio of KD value for HRAS to KD value for KRAS) / HRAS/KRAS (ratio of KD value with respect to HRAS to KD value with respect to KRAS): SPR, GDP-bound HRAS wild-type protein vs GDP-bound KRAS wild-type protein; for HRAS/KRAS (ratio of KD value with respect to GDP-bound HRAS wild-type protein to KD value with respect to KRAS): SPR KD ratio HRAS/KRAS, class symbols
[2] = target: GDP-bound KRAS wild-type protein (Homo sapiens, UniProt P01116); experiment: Binding to KRAS by surface plasmon resonance (SPR), Single Cycle Kinetics; conditions: GDP-bound KRAS wild-type protein, read-out: KRAS KD
[3] = target: GDP-bound NRAS wild-type protein (Homo sapiens, UniProt P01111); experiment: Binding to NRAS by surface plasmon resonance (SPR), Single Cycle Kinetics; conditions: for NRAS/KRAS (ratio of KD value for NRAS to KD value for KRAS) / NRAS/KRAS (ratio of KD value with respect to NRAS to KD value with respect to KRAS): SPR, GDP-bound NRAS wild-type protein vs GDP-bound KRAS wild-type protein; for NRAS/KRAS (ratio of KD value with respect to GDP-bound NRAS wild-type protein to KD value with respect to KRAS): SPR KD ratio NRAS/KRAS, class symbols
[4] = SPR Single Cycle Kinetics, 1:1 binding model

GDP-bound KRAS wild-type protein, sequence (P01116 whole entry): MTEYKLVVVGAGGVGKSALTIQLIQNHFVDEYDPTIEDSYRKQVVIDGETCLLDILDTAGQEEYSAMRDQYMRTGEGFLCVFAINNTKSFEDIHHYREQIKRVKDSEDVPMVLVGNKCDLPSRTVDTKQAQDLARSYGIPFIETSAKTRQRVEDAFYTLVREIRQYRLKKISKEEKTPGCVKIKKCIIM
GDP-bound HRAS wild-type protein, sequence (P01112 whole entry): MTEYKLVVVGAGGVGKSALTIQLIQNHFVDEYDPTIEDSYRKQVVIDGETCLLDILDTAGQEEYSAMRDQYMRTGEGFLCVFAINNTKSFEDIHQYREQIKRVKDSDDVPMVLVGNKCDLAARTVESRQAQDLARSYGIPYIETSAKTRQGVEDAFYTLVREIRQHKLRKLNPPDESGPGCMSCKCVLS
GDP-bound NRAS wild-type protein, sequence (P01111 whole entry): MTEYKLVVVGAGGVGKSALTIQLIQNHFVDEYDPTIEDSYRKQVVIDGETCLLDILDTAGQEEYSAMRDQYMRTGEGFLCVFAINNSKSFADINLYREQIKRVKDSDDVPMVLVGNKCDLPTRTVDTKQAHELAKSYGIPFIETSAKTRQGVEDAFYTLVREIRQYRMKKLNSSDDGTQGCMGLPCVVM

CC[C@H](C)[C@@H]1NC(=O)[C@H](CC(C)C)N(C)C(=O)C[C@@H](C(=O)N2CCOCC2)N(C)C(=O)[C@H](C2CCCC2)N(C)C(=O)C2(CCCC2)NC(=O)[C@@H]2CC(F)(F)CN2C(=O)[C@H](CCc2ccc(C(F)(F)F)c(Cl)c2)NC(=O)CN(C)C(=O)[C@H](Cc2ccc(F)cc2)N2CCCCC[C@@H](C2=O)N(C)C(=O)CN(C)C1=O [PP0966]
HRAS/KRAS (ratio of KD value for HRAS to KD value for KRAS) [1]: B (a compound having 3 or more and less than 10 is denoted as B)
Kd ([2]; SPR, Single Cycle Kinetics): 0.23 nM
NRAS/KRAS (ratio of KD value for NRAS to KD value for KRAS) [3]: B (a compound having 3 or more and less than 10 is denoted as B)

CCC[C@H]1C(=O)N[C@@H]([C@@H](C)CC)C(=O)N(C)CC(=O)N(C)[C@H]2C/C=C\CCN(C2=O)[C@@H](Cc2ccc(C)cc2)C(=O)N(C)CC(=O)N[C@@H](CCc2ccc3c(C)cn(C)c3c2)C(=O)N2C[C@H](OCC)C[C@H]2C(=O)NC2(CC(C)(C)C2)C(=O)N(C)[C@@H](C2CCCC2)C(=O)N(C)[C@H](C(=O)N(C)C)CC(=O)N1C [PP2899]
HRAS/KRAS (ratio of KD value with respect to GDP-bound HRAS wild-type protein to KD value with respect to KRAS) [1]: B (a compound having 3 or more and less than 10 is denoted as B)
Kd [2, 4]: 0.85 nM
NRAS/KRAS (ratio of KD value with respect to GDP-bound NRAS wild-type protein to KD value with respect to KRAS) [3]: A (a compound having 10 or more and less than 20 is denoted as A)

CCCO[C@H]1CCN2C(=O)[C@H](CCc3cc(F)c(C(F)(F)F)c(F)c3)NC(=O)CN(C)C(=O)[C@H](Cc3ccc(C(F)(F)F)cc3)N3CCCCC[C@@H](C3=O)N(C)C(=O)CN(C)C(=O)[C@H]([C@@H](C)CC)NC(=O)[C@H](CC(C)C)N(C)C(=O)C[C@@H](C(=O)N3CCOCC3)N(C)C(=O)[C@H](C3CCCC3)N(C)C(=O)C3(CCC3)NC(=O)[C@H]12 [PP1069]
HRAS/KRAS (ratio of KD value for HRAS to KD value for KRAS) [1]: B (a compound having 3 or more and less than 10 is denoted as B)
Kd ([2]; SPR, Single Cycle Kinetics): 2.5 nM
NRAS/KRAS (ratio of KD value for NRAS to KD value for KRAS) [3]: A (a compound having 10 or more and less than 20 is denoted as A)

CCO[C@@H]1C[C@H]2C(=O)NC3(CCC3)C(=O)N(C)[C@@H](C3CCCC3)C(=O)N(CCC3CCCC3)[C@H](C(=O)N(C)C)CC(=O)N(C)[C@@H](CC(C)C)C(=O)N[C@@H]([C@@H](C)CC)C(=O)N(C)CC(=O)N(C)[C@H]3CCCCCN(C3=O)[C@@H](Cc3ccc(F)cc3)C(=O)N(C)CC(=O)N[C@@H](CCc3ccc(C(F)(F)F)c(Cl)c3)C(=O)N2C1 [PP0976]
HRAS/KRAS (ratio of KD value for HRAS to KD value for KRAS) [1]: B (a compound having 3 or more and less than 10 is denoted as B)
Kd ([2]; SPR, Single Cycle Kinetics): 4.8 nM
NRAS/KRAS (ratio of KD value for NRAS to KD value for KRAS) [3]: B (a compound having 3 or more and less than 10 is denoted as B)

CCCN1C(=O)[C@@H]2CCN2C(=O)CN(C)C(=O)[C@H]([C@@H](C)CC)NC(=O)[C@H](CC(C)C)N(C)C(=O)C[C@@H](C(=O)N(C)C)NC(=O)[C@H](C2CCCC2)N(C)C(=O)C2(CCCC2)NC(=O)[C@@H]2CC(F)(F)CN2C(=O)[C@H](CCc2ccc(C(F)(F)F)c(Cl)c2)NC(=O)CN(C)C(=O)[C@@H]1Cc1ccc(C(F)(F)F)cc1 [PP0387] ([NMeL]I[Sar][Aze][NPrPhe(4-CF3)][Sar][hPhe(3-Cl-4-CF3)][Pro(4,4-F2)][Ac5c][NMeGly(cPent)]D-NMe2; lactam N-11)
HRAS/KRAS (ratio of KD value for HRAS to KD value for KRAS) [1]: B (a compound having 3 or more and less than 10 is denoted as B)
Kd [2, 4]: 0.54 nM
NRAS/KRAS (ratio of KD value for NRAS to KD value for KRAS) [3]: C (A compound having a KD ratio of 0.1 or more and less than 3 is denoted as C)

CCCN1C(=O)CN(C)C(=O)CN(C)C(=O)[C@H]([C@@H](C)CC)NC(=O)[C@H](CC(C)C)N(C)C(=O)C[C@@H](C(=O)N(C)C)NC(=O)[C@H](C2CCCC2)N(C)C(=O)C2(CCC2)NC(=O)[C@@H]2CC(F)(F)CN2C(=O)[C@H](CCc2ccc(C(F)(F)F)c(Cl)c2)NC(=O)CN(C)C(=O)[C@@H]1Cc1ccc(C(F)(F)F)cc1 [PP0358] ([NMeL]I[Sar][Sar][NPrPhe(4-CF3)][Sar][hPhe(3-Cl-4-CF3)][Pro(4,4-F2)][Ac4c][NMeGly(cPent)]D-NMe2; lactam N-11)
HRAS/KRAS (ratio of KD value for HRAS to KD value for KRAS) [1]: C (A compound having a KD ratio of 0.1 or more and less than 3 is denoted as C)
Kd [2, 4]: 0.33 nM
NRAS/KRAS (ratio of KD value for NRAS to KD value for KRAS) [3]: B (a compound having 3 or more and less than 10 is denoted as B)

CCO[C@@H]1C[C@H]2C(=O)NC3(CC(C)(C)C3)C(=O)N(C)[C@@H](C3CCCC3)C(=O)N(C)[C@H](C(=O)N(C)CC)CC(=O)N(C)[C@@H](COC)C(=O)N[C@@H]([C@@H](C)CC)C(=O)N(C)CC(=O)N(C)[C@H]3C/C=C\CCN(C3=O)[C@@H](Cc3ccc(C(F)(F)F)cc3)C(=O)N(C)CC(=O)N[C@@H](CCc3ccc(C(F)(F)F)c(Cl)c3)C(=O)N2C1 [PP2836]
HRAS/KRAS (ratio of KD value with respect to GDP-bound HRAS wild-type protein to KD value with respect to KRAS) [1]: A (a compound having 10 or more and less than 20 is denoted as A)
Kd [2, 4]: 0.065 nM
NRAS/KRAS (ratio of KD value with respect to GDP-bound NRAS wild-type protein to KD value with respect to KRAS) [3]: A (a compound having 10 or more and less than 20 is denoted as A)

CCO[C@@H]1C[C@H]2C(=O)NC3(CCCC3)C(=O)N(C)[C@@H](C3CCCC3)C(=O)N(C)[C@H](C(=O)N(C)C)CC(=O)N(C)[C@@H](C)C(=O)N[C@@H]([C@@H](C)CC)C(=O)N(C)CC(=O)N(C)[C@H]3CCCCCN(C3=O)[C@@H](Cc3ccc(C(F)(F)F)cc3)C(=O)N(C)CC(=O)N[C@@H](CCc3cc(F)c(C(F)(F)F)c(F)c3)C(=O)N2C1 [PP0475]
HRAS/KRAS (ratio of KD value with respect to HRAS to KD value with respect to KRAS) [1]: B (a compound having 3 or more and less than 10 is denoted as B)
Kd [2, 4]: 0.46 nM
NRAS/KRAS (ratio of KD value with respect to NRAS to KD value with respect to KRAS) [3]: B (a compound having 3 or more and less than 10 is denoted as B)

CCCN1C(=O)CN(C)C(=O)CN(C)C(=O)[C@H]([C@@H](C)CC)NC(=O)[C@H](CC(C)C)N(C)C(=O)C[C@@H](C(=O)N2CCOCC2)N(C)C(=O)[C@H](CC(F)(F)F)N(C)C(=O)C2(CCCC2)NC(=O)[C@@H]2CCCN2C(=O)[C@H](CCc2cc(F)c(C(F)(F)F)c(F)c2)NC(=O)CN(C)C(=O)[C@@H]1Cc1ccc(C(F)(F)F)cc1 [PP0767] ([NMeL]I[Sar][Sar][NPrPhe(4-CF3)][Sar][hPhe(3,5-F2-4-CF3)]P[Ac5c][NMeAbu(4,4,4-F3)][NMeD]-Morpholide; lactam N-11)
HRAS/KRAS (ratio of KD value with respect to HRAS to KD value with respect to KRAS) [1]: C (A compound having a KD ratio of 0.1 or more and less than 3 is denoted as C)
Kd [2, 4]: 1.9 nM
NRAS/KRAS (ratio of KD value with respect to NRAS to KD value with respect to KRAS) [3]: B (a compound having 3 or more and less than 10 is denoted as B)

CCO[C@@H]1C[C@H]2C(=O)NC3(CCC3)C(=O)N(C)[C@@H](C3CCCC3)C(=O)N(C)[C@H](C)CC(=O)N(C)[C@@H](CC3CC3)C(=O)N[C@@H]([C@@H](C)CC)C(=O)N(C)CC(=O)N(C)[C@H]3C/C=C\CCN(C3=O)[C@@H](Cc3ccc(F)cc3)C(=O)N(C)CC(=O)N[C@@H](CCc3cc(F)c(C(F)(F)F)c(F)c3)C(=O)N2C1 [PP1490]
HRAS/KRAS (ratio of KD value for HRAS to KD value for KRAS) ([1]; KD ratio class): B (a compound having 3 or more and less than 10 is denoted as B)
Kd ([2]; SPR, Single Cycle Kinetics, 1:1 binding model): 0.6 nM
NRAS/KRAS (ratio of KD value for NRAS to KD value for KRAS) ([3]; KD ratio class): B (a compound having 3 or more and less than 10 is denoted as B)
